Experimental data from publication PMC6985109, “Cellular apoptosis and necrosis as therapeutic targets for novel Eugenol Tosylate Congeners against Candida albicans” (Scientific Reports, 2020).
In brackets after ≈: the same amount, converted by molar mass.

How the values were obtained:
[1] = tested on: cytochrome c oxidase activity in C. albicans SC5314, C. albicans 4175 and C. albicans 5112; assay: Cytochrome c oxidase activity in mitochondria of treated cells; type: cell-based, Candida albicans; details: 3 h, range over three strains
Description: To study the effect of test compounds on apoptotic markers protoplasts were prepared as described previously, with modifications. Briefly, mid-exponential phase cells were harvested and exposed to various concentrations of test compounds (0.5 × MIC, 1 × MIC and 2×MIC) for 3 h. The cells were then washed twice with protoplast buffer- I (1 M sorbitol, 50 mM tris base, 10 mM MgCl2 and 30 mM DTT) and incubated in the same buffer for 15 minutes at 25 °C, followed by centrifugation at 1500 rpm for 5 minutes. Supernatant was removed and cells were incubated with buffer- II (1 M sorbitol, 50 mM tris base, 10 mM MgCl2 and 1 mM DTT) supplemented with lyticase enzyme (≥1 µg/mL) used to digest the cell wall for 1 h at 25 °C. Buffer- II were removed by centrifugation and then cells were incubated with buffer- III (1 M sorbitol, 50 mM tris base and 10 mM MgCl2) for 20 minutes at room temperature. After the incubation cells were again centrifuged at 1500 rpm for 5 minutes and supernatant was discarded. Protoplasts then finally washed once with PBS and re-suspended in the same for further use. In each washing steps the volume of these protoplast buffers were 5 times to cell volume with pH 7.4.
After the cells were exposed to different concentrations of test compounds as mentioned above, mitochondria of the cells were isolated using Yeast Mitochondria Isolation Kit- MITOISO3 (Sigma – Aldrich St. Louis, MO, U.S.A.). Cytochrome c oxidase assay kit (ScienCell, Cat. No. 8278, CA, USA) was used to detect the cytochrome c oxidase activity. In all procedures, kits were used according to the manufacturer’s instructions. Briefly, prepared spheroplasts were followed by homogenization to release the mitochondria. Homogenate was centrifuged in 1X storage buffer (1 ml) at 6,500 × g for 10 minutes at 2–8 °C. […] Protein concentration was determined by using TCA Lowry method. […] Immediately change in absorbance of cytochrome c was measured at 550 nm on a kinetic program (duration 30 seconds, interval 5 seconds) by using UV-1800 SHIMADZU spectrophotometer (Shimadzu Corporation, Japan).

[2] = tested on: Candida albicans 4576; assay: Broth microdilution antifungal susceptibility (MIC/MFC); type: cell-based; details: strain 4576, FLC susceptible
Description: (§1) In this study, 10 clinical Candida albicans isolates, comprising of 5 fluconazole susceptible and 5 fluconazole resistant, were used. C. albicans SC5314 was also used as a control laboratory strain. Clinical strains used in this study were stored at −80 °C supplemented with 20% glycerol in the Department of Clinical Microbiology and Infectious Diseases, University of the Witwatersrand, Johannesburg and were previously collected under the ethical clearance number M000402, obtained from the Human Research Ethics Committee, University of the Witwatersrand. For experimental purpose each strain from glycerol stock was recovered on Sabouraud Dextrose (SDA) agar plates at 37 °C for 24 h.
(§2) Minimum Inhibitory Concentration (MIC) and Minimum Fungicidal Concentrations (MFC) of all newly synthesized eugenol-tosylate congeners (ETC-1–ETC-7) against C. albicans strains were determined by broth microdilution assay in accordance with the approved guidelines described by Clinical and Laboratory Standards Institute (CLSI) guidelines M27-A[38]. The test compounds were prepared in 1% DMSO to a stock concentration of 8192 µg/ml. Two-fold dilutions of test compounds (100 µL) were prepared in 96-well flat-bottom microtiter plates, inoculated with 100 µl of inoculum (1 × 10^6 cells/mL) and incubated at 37 °C for 24 hours. In every set of experiment, positive control (fluconazole), negative vehicle control (1% DMSO) and culture control (media and cells only) were included. MIC’s were determined visibly as the lowest concentration of the test compounds that inhibited growth of test organism. To determine MFC, each well without visible growth was sub-cultured onto agar plates. Concentration in the first well with no growth on plate was taken as MFC. […] The experiment was performed in triplicate to validate the results.

[3] = tested on: Candida albicans 4179; assay: as above; type: cell-based; details: strain 4179, FLC susceptible
Description: as §1, §2

[4] = tested on: Candida albicans 4135; assay: as above; type: cell-based; details: strain 4135, FLC resistant
Description: as §1, §2

[5] = tested on: Candida albicans 4324; assay: as above; type: cell-based; details: strain 4324, FLC resistant
Description: as §1, §2

[6] = tested on: Candida albicans 4175; assay: as above; type: cell-based; details: Candida albicans, strain 4175, FLC susceptible
Description: as §1, §2

[7] = tested on: Candida albicans 4122; assay: as above; type: cell-based; details: strain 4122, FLC resistant
Description: as §1, §2

C=CCc1ccc(OS(=O)(=O)c2ccc(C(=O)O)cc2)c(OC)c1 [ETC-7, 4-{[2-methoxy-4-(prop-2-en-1-yl)phenoxy]sulfonyl}benzoic acid]
cytochrome c oxidase enzyme activity decreased up to ([1]; 0.5 × MIC): 11.33–18.07% | cytochrome c oxidase enzyme activity decreased up to ([1]; 1 × MIC): 9.20–13.92% | cytochrome c oxidase enzyme activity decreased up to ([1]; 2 × MIC): 5.21–9.88% | MFC [2]: 4 µg/mL (≈ 11.5 µM) | MIC ([2]; 37 °C, 24 h): 2 µg/mL (≈ 5.74 µM) | MFC [3]: 4 µg/mL (≈ 11.5 µM) | MIC ([3]; 37 °C, 24 h): 2 µg/mL (≈ 5.74 µM) | MFC [4]: 8 µg/mL (≈ 23 µM) | MIC ([4]; 37 °C, 24 h): 4 µg/mL (≈ 11.5 µM) | MFC [5]: 8 µg/mL (≈ 23 µM) | MIC ([5]; 37 °C, 24 h): 4 µg/mL (≈ 11.5 µM) | MFC [6]: 2 µg/mL (≈ 5.74 µM) | MIC ([6]; 37 °C, 24 h, read-out: MIC): 1 µg/mL (≈ 2.87 µM) | MFC [7]: 16 µg/mL (≈ 45.9 µM) | MIC ([7]; 37 °C, 24 h): 8 µg/mL (≈ 23 µM)
